Test results as given in paper PMC4277633 (Iranian Journal of Pharmaceutical Research : IJPR, 2015).
Values after ≈ are worked out from the molar mass of the structure shown. Structures can show the parent of a compound that is named as a salt. *1 amine or outer side, *2 acyl side, *3 side chain or, on linkers, in order; H or OH if unused. Where a SMILES comes first, the peptide text is derived from it. Bridges are numbered along the chain shown (N, C = ends). Roman numbers before positions name the chains, in order. [ ]: non-standard residue; d: D form. Actinocin(9to1) = Cc1c2oc3c(C)ccc(C(=O)[*:1])c3nc-2c(C(=O)[*:2])c(N)c1=O; NMeV = CN[C@H](C(=O)O)C(C)C; Sar = CNCC(=O)O

What was measured:
[1] = system: Human Umbilical Vein Endothelial (HUVEC) cell line; test: cells; conditions: 24 h, read-out: MTT IC 50
[2] = system: Human Umbilical Vein Endothelial (HUVEC) cell line
[3] = system: Bacillus Calmette–Guérin (BCG) (1173P2); test: organism not typed; format: cell-based, Mycobacterium bovis
M. tuberculosis = conditions: cited from earlier work; for activity against mychobacterium tuberculosis: both active and persistent form
[4] = system: pantothenate synthetase (PanC, Rv3602c); conditions: HTS hits; cited from earlier work
[5] = 48 h, read-out: MIC 48 h, BCG, alamar blue, colour read after 48 h reincubation
[6] = 72 h, read-out: BCG MIC, Table 4, same values as 72 h reading
[7] = 72 h, read-out: MIC 72 h, BCG, alamar blue, colour read after 72 h reincubation
[8] = 72 h, read-out: MIC, Mycobacterium bovis BCG, corresponds to 72 h values

| Structure (SMILES) | IC50 [1] [µg/mL] | MIC [3, 5] [µg/mL] | MIC [3, 6] [µg/mL] | MIC [3, 7] [µg/mL] | MIC [3, 8] [µg/mL] | further results |
| --- | --- | --- | --- | --- | --- | --- |
| COc1cccc2c1C(=O)c1c(O)c3c(c(O)c1C2=O)C[C@@](O)(C(=O)CO)C[C@@H]3O[C@H]1C[C@H](N)[C@H](O)[C@H](C)O1 [doxorubicin, reference compound] | 3.1 (≈ 5.7 µM) | – | – | – | – | – |
| O=C(O)c1cc2ccccc2oc1=O [Compound 2b, coumarin-3-carboxylic acid] | 924 (≈ 4860 µM) | 125 (≈ 657 µM) | 31.2 (≈ 164 µM) | 31.2 (≈ 164 µM) | 31.2 (≈ 164 µM) | selectivity indices (SI) [2]: ≥ 10 |
| O=C1c2ccccc2C(=O)N1CCO [Compound 1h, N-(2-Hydroxyethyl)-phthalimide] | 842 (≈ 4400 µM) | 500 (≈ 2620 µM) | 500 (≈ 2620 µM) | 500 (≈ 2620 µM) | – | antimycobacterial activity ([3]; BCG): did not show good activity |
| c1ccc2[nH]ccc2c1 [Compound 1c, indole] | 573 (≈ 4890 µM) | 125 (≈ 1070 µM) | 46.9 (≈ 400 µM) | 46.9 (≈ 400 µM) | 46.9 (≈ 400 µM) | selectivity indices (SI) [2]: ≥ 10; tuberculostatic effect (M. tuberculosis): comparable with Isoniazid |
| N#Cc1ccccc1N [Compound 1b] | 908 (≈ 7680 µM) | 500 (≈ 4230 µM) | 93.8 (≈ 794 µM) | 93.8 (≈ 794 µM) | – | – |
| O=[N+]([O-])c1cn2c(n1)OC[C@@H](OCc1ccc(OC(F)(F)F)cc1)C2 [PA-8242] | – | – | – | – | – | activity against mychobacterium tuberculosis (M. tuberculosis): good in-vitro and in-vivo activity |
| Nc1cccc2c1C(=O)c1ccccc1C2=O [Compound 1f, 1-aminoanthraquinone] | 14.2 (≈ 63.5 µM) | 188 (≈ 840 µM) | 7.81 (≈ 35 µM) | 7.81 (≈ 35 µM) | 7.8 (≈ 34.9 µM) | cytotoxicity in HUVEC cell line [2]: not in acceptable range; MIC ([3]; Mycobacterium bovis BCG, corresponds to 72 h values): 7.81 µg/mL (≈ 35 µM) |
| C[C@]1(COc2ccc(N3CCC(Oc4ccc(OC(F)(F)F)cc4)CC3)cc2)Cn2cc([N+](=O)[O-])nc2O1 [OPC-676833] | – | – | – | – | – | activity against mychobacterium tuberculosis (M. tuberculosis): good in-vitro and in-vivo activity |
| Cc1cc(C(=O)O)no1 [Compound 2a, 5-methylisoxazole-3-carboxylic acid] | 1090 (≈ 8600 µM) | 500 (≈ 3930 µM) | 125 (≈ 983 µM) | 125 (≈ 983 µM) | – | antimycobacterial activity ([3]; BCG): no antimycobacterial activity |
| O=C(O)/C=C/c1cnc[nH]1 [Compound 1j] | 1190 (≈ 8590 µM) | 500 (≈ 3620 µM) | 500 (≈ 3620 µM) | 500 (≈ 3620 µM) | – | antimycobacterial activity ([3]; BCG): no activity |
| Cc1c2oc3c(C)ccc(C(=O)N[C@@H]4C(=O)N[C@H](C(C)C)C(=O)N5CCC[C@H]5C(=O)N(C)CC(=O)N(C)[C@@H](C(C)C)C(=O)O[C@@H]4C)c3nc-2c(C(=O)N[C@@H]2C(=O)N[C@H](C(C)C)C(=O)N3CCC[C@H]3C(=O)N(C)CC(=O)N(C)[C@@H](C(C)C)C(=O)O[C@@H]2C)c(N)c1=O [actinomycin D] (I: T[dV]P[Sar][NMeV] / II: T[dV]P[Sar][NMeV]; ester I:1-I:C, II:1-II:C; linker I:N-II:N via Actinocin(9to1)) | – | – | – | – | – | activity against pantothenate synthetase [4]: poor activity |
| Nc1ccc2c(c1)Cc1ccccc1-2 [Compound 1e, 2-fluorenamine] | 726 (≈ 4010 µM) | 31.2 (≈ 172 µM) | 11.7 (≈ 64.7 µM) | 11.7 (≈ 64.7 µM) | 11.7 (≈ 64.7 µM) | selectivity indices (SI) [2]: ≥ 10 |
| CCN(CC)CCOC(=O)C(Cc1cccc2ccccc12)CC1CCCO1 (stereo not shown) [nafronyl oxalate] | – | – | – | – | – | activity against pantothenate synthetase [4]: poor activity |
| Nc1ccccc1 [Compound 1a] | 1040 (≈ 11100 µM) | 500 (≈ 5370 µM) | 250 (≈ 2680 µM) | 250 (≈ 2680 µM) | – | – |
| c1ccc2c(c1)CCN2 [Compound 1d, indoline] | 800 (≈ 6710 µM) | 31.2 (≈ 262 µM) | 7.81 (≈ 65.5 µM) | 7.81 (≈ 65.5 µM) | 7.81 (≈ 65.5 µM) | – |
| NCCCn1ccnc1 [Compound 1i] | 441 (≈ 3520 µM) | 250 (≈ 2000 µM) | 125 (≈ 999 µM) | 125 (≈ 999 µM) | – | – |
| Nc1ccc(Nc2ccccc2)c2c1C(=O)c1ccccc1C2=O [Compound 1g, 1-amino-4-anilino-9,10-anthraquinone] | 344 (≈ 1100 µM) | 7.81 (≈ 24.8 µM) | < 3.9 | < 3.9 | < 3.9 | selectivity indices (SI) [2]: ≥ 10 |
| CC[C@@H](CO)NCCN[C@@H](CC)CO [ethambutol, Ethambutol, reference compound] | – | – | – | – | – | MIC ([3]; Bacillus, BCG, read-out: MIC of ethambutol, positive control, table footnote, reading time not given): 3.12 µg/mL |
